Literature values as cited in patent US20050187278A1, “Treatment or prevention of vascular disorders with Cox-2 inhibitors in combination with cyclic AMP-specific phosphodiesterase inhibitors” (Pharmacia Corporation, priority 2003, published 2005).
Each block holds one compound with its values, some of them ahead of it.

Assays:
PDE4 [1] = test system: PDE4
PDE3 = details: first of two values given 'respectively' for PDE3 and 4
PDE4 [2] = details: second of two values given 'respectively' for PDE3 and 4

Compound: COc1ccc([C@@H]2CNC(=O)C2)cc1OC1CCCC1 [Compound C6, (4R)-4-[3-(Cyclopentyloxy)-4-methoxyphenyl]pyrrolidin-2-one]
- fold more potent than the S-(+) enantiomer (PDE4 [1]; PDE4 inhibitor rolipram, R-(-) versus S-(+) enantiomer): rolipram; 2-10-fold

Compound: COc1ccc([C@H]2CNC(=O)C2)cc1OC1CCCC1 [Compound C7, (4S)-4-[3-(Cyclopentyloxy)-4-methoxyphenyl]pyrrolidin-2-one]
- activity relative to the other enantiomer of the PDE4 inhibitor rolipram (PDE4 [1]; in words): Less active

- IC50 (PDE3): 500 nM
- IC50 (PDE4 [2]): 800 nM
Compound: COc1cc(-c2ccc(=O)[nH]n2)ccc1OC(F)F [Compound C8, 6-[4-(Difluoromethoxy)-3-methoxyphenyl]-3(2H)-pyridazinone]
